Reference: patent US20180303809A1, “TREATMENT OF BURN PAIN BY TRPV1 MODULATORS” (Purdue Pharma L.P., priority 2013, published 2018)

Experiments:
Type in all cases: in vivo, rat
male Sprague-Dawley rats [1] = assay: Paw pressure assay, mechanical hyperalgesia (PWT) in thermal burn pain model; settings: for % Decrease from Baseline (mean ± S.E.M.) of Paw Withdrawal Threshold / Paw Withdrawal Threshold (g) (mean ± S.E.M.): rat burn injury 55° C. 24 s
Experimental: (§1) Test Animals: Each experiment used male Sprague-Dawley rats weighing between 190-260 g at the time of thermal burn injury. The rats were housed two per cage, and were allowed to acclimate to their environment for at least six days before testing began. The rats had free access to food and water at all times, except during testing and prior to oral (PO) administration of a test compound, when food was removed about 16 hours before dosing. The rats were divided into treatment groups, and one of the following compounds was administered to each group at the dose and by the route of administration indicated in Tables 5.2A to 5.2C, 5.3A and 5.3B, and 5.4A and 5.4B: ketorolac (Sigma-Aldrich, St. Louis, Mo.), AMG 517 (selective TRPV1 antagonist described in Em. Doherty et al., “Novel vanilloid receptor-1 antagonists:2. Structure-activity relationships of 4-oxopyrimidines leading to the selection of a clinical candidate,” J Med Chem 50:3515-3527 (2007).) (Purdue Pharma L. P., Cranbury, N.J.), indomethacin (Alexis Biochemicals, Farmingdale, N.Y.), gabapentin (Bosche Scientific, New Brunswick, N.J.), or (S)-3-chloro-5-(1,2-dihydroxyethyl)-N-(5-(trifluoromethyl)pyridin-2-yl)-5′,6′-dihydro-[2,4′-bipyridine]-1′(2′H)-carboxamide (Compound 1). The control groups were administered the vehicle for the compound of formula (I). The volume of administration for PO treatment was 5 ml/kg, and was the same for all treatment groups. Volume of administration for intraperitoneal (i.p.) drug administration was 2 ml/kg.
(§2) To assess the actions of a compound of formula (I) for the treatment or prevention of burn pain, a model of thermal burn pain was used. A thermal burn injury was induced under isofluorane/O2 inhalation anesthesia. To assess mechanical hyperalgesia and weight bearing, a thermal injury was produced by immersing the left hind paw into water maintained at 55° C. for 24 seconds. The left hind paw of non-injured control animals was immersed in 22° C. water for 24 seconds. To assess thermal hyperalgesia, a thermal injury was produced by immersing the left hindpaw into water maintained at 50° C. for 48 seconds; the left hind-paw of non-injured control animals was immersed in 22° C. water for 48 seconds. The animals were assessed for response to noxious mechanical stimuli by determining PWT for mechanical hyperalgesia, weight bearing difference between the injured or non-injured side, or response to noxious thermal stimuli by determining PWL for thermal hyperalgesia, all as described below, prior to drug administration (baseline), then again at 1, 3 and 5 hours after induction of burn injury.
The paw pressure assay was used to assess mechanical hyperalgesia. For this assay, hind paw withdrawal thresholds (PWT) to a noxious mechanical stimulus were determined using an analgesimeter (Model 7200, commercially available from Ugo Basile of Italy) as described in C. Stein, “Unilateral Inflammation of the Hindpaw in Rats as a Model of Prolonged Noxious Stimulation: Alterations in Behavior and Nociceptive Thresholds,” Pharmacol. Biochem. and Behavior 31:451-455 (1988). The rat's paw was placed on a small platform, and weight was applied in a graded manner up to a maximum of 250 grams. The endpoint was taken as the weight at which the paw was completely withdrawn. PWT was determined once for each rat at each time point, wherein the affected (ipsilateral; same side as the injury) rear paw was tested. […] All drug treatment groups were compared to the vehicle control group (i.e. injured, administered only the vehicle).

male Sprague-Dawley rats [2] = assay: Hind limb weight bearing (incapacitance meter, % WL) in thermal burn pain model; settings: for % WL (mean ± S.E.M.), percentage of weight borne on the burn-injured left hind paw: rat burn injury 55° C. 24 s
Experimental: as §1, §2
A commercially available incapacitance meter was used to determine the weight distribution on the two hind paws of the animal (Linton Incapacitance Tester (Linton Instrumentation, Norfolk, UK)). The weight bearing difference (WBD) between the injured and non-injured hindpaw was measured. The animal was placed in the testing chamber that allows the animal to stand normally, distributing its body weight on the hind limbs for the test. Each hind paw was positioned on a separate pressure sensitive pad, which independently measures the pressure applied by each limb. The device continuously collects data after either a force threshold has been exceeded, or the investigator depresses the start pad. Rats were allowed to acclimate when placed on the apparatus, and when they were stationary, the force exerted was then continuously monitored for 3 s. The endpoint was the amount of pressure applied to each limb over time. Three readings were taken for each rat at each time point, and the average used for data analysis. WBD was expressed as “% WL”, i.e. the percentage of weight borne on the burn-injured left hind paw, using the following formula: […]
where WLP is the weight on the left hind paw and WRP is the weight on the right (untreated) hind paw. The 50% value of % WL corresponds to an equal weight distribution across both hind paws. […]

male Sprague-Dawley rats [3] = assay: Plantar test, thermal hyperalgesia (PWL) in thermal burn pain model; settings: for % Change from Baseline (mean ± S.E.M.) of Paw Withdrawal Latency / Paw Withdrawal Latency (sec) (mean ± S.E.M.): rat burn injury 50° C. 48 s
Experimental: as §1, §2
The plantar test was used to assess thermal hyperalgesia. For this test, hind paw withdrawal latencies (PWL) to a noxious thermal stimulus were determined using a plantar test apparatus (commercially available from Ugo Basile of Italy) following the technique described by K. Hargreaves et al., “A New and Sensitive Method for Measuring Thermal Nociception in Cutaneous Hyperalgesia,” Pain 32(1):77-88 (1988). The maximum exposure time was set at 32 seconds to avoid tissue damage and any directed paw withdrawal from the heat source is taken as the end point. Three latencies were determined at each time point and averaged.

[4] = 3 mg/kg PO, 1 h after administration
[5] = 3 mg/kg PO, 3 h after administration
[6] = 3 mg/kg PO, 5 h after administration
[7] = 3 mg/kg PO, baseline (prior to drug administration)
[8] = 10 mg/kg PO, 1 h after administration
[9] = 10 mg/kg PO, 3 h after administration
[10] = 10 mg/kg PO, 5 h after administration
[11] = 10 mg/kg PO, baseline (prior to drug administration)
[12] = 30 mg/kg PO, 1 h after administration
[13] = 30 mg/kg PO, 3 h after administration
[14] = 30 mg/kg PO, 5 h after administration
[15] = 30 mg/kg PO, baseline (prior to drug administration)

Q: What does the source list for O=C(Nc1ccc(C(F)(F)F)cn1)N1CC=C(c2ncc([C@H](O)CO)cc2Cl)CC1 [Compound 1, (S)-3-chloro-5-(1,2-dihydroxyethyl)-N-(5-(trifluoromethyl)pyridin-2-yl)-5′,6′-dihydro-[2,4′-bipyridine]-1′(2′H)-carboxamide]?
A: % Decrease from Baseline (mean ± S.E.M.) of Paw Withdrawal Threshold (male Sprague-Dawley rats [1]; [4]): 59 ± 1.8%; Paw Withdrawal Threshold (g) (mean ± S.E.M.) (male Sprague-Dawley rats [1]; [4]): 97 ± 4.5 g; % Decrease from Baseline (mean ± S.E.M.) of Paw Withdrawal Threshold (male Sprague-Dawley rats [1]; [5]): 63.2 ± 2.1^ %; Paw Withdrawal Threshold (g) (mean ± S.E.M.) (male Sprague-Dawley rats [1]; [5]): 88 ± 5.6 g; % Decrease from Baseline (mean ± S.E.M.) of Paw Withdrawal Threshold (male Sprague-Dawley rats [1]; [6]): 63 ± 1.4%; Paw Withdrawal Threshold (g) (mean ± S.E.M.) (male Sprague-Dawley rats [1]; [6]): 90 ± 4.0 g; Paw Withdrawal Threshold (g) (mean ± S.E.M.) (male Sprague-Dawley rats [1]; [7]): 240 ± 8.4 g; % Decrease from Baseline (mean ± S.E.M.) of Paw Withdrawal Threshold (male Sprague-Dawley rats [1]; [8]): 55 ± 3.2%; Paw Withdrawal Threshold (g) (mean ± S.E.M.) (male Sprague-Dawley rats [1]; [8]): 108 ± 73^ g; % Decrease from Baseline (mean ± S.E.M.) of Paw Withdrawal Threshold (male Sprague-Dawley rats [1]; [9]): 60 ± 3.2%; Paw Withdrawal Threshold (g) (mean ± S.E.M.) (male Sprague-Dawley rats [1]; [9]): 97 ± 8.5 g; % Decrease from Baseline (mean ± S.E.M.) of Paw Withdrawal Threshold (male Sprague-Dawley rats [1]; [10]): 66 ± 2.4%; Paw Withdrawal Threshold (g) (mean ± S.E.M.) (male Sprague-Dawley rats [1]; [10]): 83 ± 5.4 g; Paw Withdrawal Threshold (g) (mean ± S.E.M.) (male Sprague-Dawley rats [1]; [11]): 243 ± 6.5 g; % Decrease from Baseline (mean ± S.E.M.) of Paw Withdrawal Threshold (male Sprague-Dawley rats [1]; [12]): 37 ± 2.5 %; Paw Withdrawal Threshold (g) (mean ± S.E.M.) (male Sprague-Dawley rats [1]; [12]): 153 ± 4.4 g; % Decrease from Baseline (mean ± S.E.M.) of Paw Withdrawal Threshold (male Sprague-Dawley rats [1]; [13]): 42 ± 4.5 %; Paw Withdrawal Threshold (g) (mean ± S.E.M.) (male Sprague-Dawley rats [1]; [13]): 141 ± 9.0 g; % Decrease from Baseline (mean ± S.E.M.) of Paw Withdrawal Threshold (male Sprague-Dawley rats [1]; [14]): 61 ± 2.0^ %; Paw Withdrawal Threshold (g) (mean ± S.E.M.) (male Sprague-Dawley rats [1]; [14]): 95 ± 4.5 g; Paw Withdrawal Threshold (g) (mean ± S.E.M.) (male Sprague-Dawley rats [1]; [15]): 244 ± 6.0^ g; Effect on mechanical hyperalgesia associated with the burn injury (male Sprague-Dawley rats [1]; rat, 30 mg/kg): significantly reduced mechanical hyperalgesia; Effect on weight bearing (male Sprague-Dawley rats [2]; rat burn injury): did not significantly affect weight bearing; % WL (mean ± S.E.M.), percentage of weight borne on the burn-injured left hind paw (male Sprague-Dawley rats [2]; [4]): 24.4 ± 4.44%; % WL (mean ± S.E.M.), percentage of weight borne on the burn-injured left hind paw (male Sprague-Dawley rats [2]; [5]): 42.0 ± 4.51%; % WL (mean ± S.E.M.), percentage of weight borne on the burn-injured left hind paw (male Sprague-Dawley rats [2]; [6]): 49.5 ± 3.60%; % WL (mean ± S.E.M.), percentage of weight borne on the burn-injured left hind paw (male Sprague-Dawley rats [2]; [7]): 50.6 ± 0.62%; % WL (mean ± S.E.M.), percentage of weight borne on the burn-injured left hind paw (male Sprague-Dawley rats [2]; [8]): 37.6 ± 2.54%; % WL (mean ± S.E.M.), percentage of weight borne on the burn-injured left hind paw (male Sprague-Dawley rats [2]; [9]): 47.3 ± 1.92%; % WL (mean ± S.E.M.), percentage of weight borne on the burn-injured left hind paw (male Sprague-Dawley rats [2]; [10]): 49.0 ± 2.15%; % WL (mean ± S.E.M.), percentage of weight borne on the burn-injured left hind paw (male Sprague-Dawley rats [2]; [11]): 50.6 ± 0.71%; % WL (mean ± S.E.M.), percentage of weight borne on the burn-injured left hind paw (male Sprague-Dawley rats [2]; [12]): 31.4 ± 3.92%; % WL (mean ± S.E.M.), percentage of weight borne on the burn-injured left hind paw (male Sprague-Dawley rats [2]; [13]): 50.3 ± 2.07%; % WL (mean ± S.E.M.), percentage of weight borne on the burn-injured left hind paw (male Sprague-Dawley rats [2]; [14]): 55.6 ± 3.03%; % WL (mean ± S.E.M.), percentage of weight borne on the burn-injured left hind paw (male Sprague-Dawley rats [2]; [15]): 50.3 ± 0.53%; Effect on thermal hyperalgesia (male Sprague-Dawley rats [3]; rat burn injury): did not significantly affect thermal hyperalgesia; % Change from Baseline (mean ± S.E.M.) of Paw Withdrawal Latency (male Sprague-Dawley rats [3]; [4]): −45.8 ± 14.53%; Paw Withdrawal Latency (sec) (mean ± S.E.M.) (male Sprague-Dawley rats [3]; [4]): 8.1 ± 0.77 s; % Change from Baseline (mean ± S.E.M.) of Paw Withdrawal Latency (male Sprague-Dawley rats [3]; [5]): −34.4 ± 7.57%; Paw Withdrawal Latency (sec) (mean ± S.E.M.) (male Sprague-Dawley rats [3]; [5]): 9.2 ± 0.99 s; % Change from Baseline (mean ± S.E.M.) of Paw Withdrawal Latency (male Sprague-Dawley rats [3]; [6]): −35.7 ± 15.81%; Paw Withdrawal Latency (sec) (mean ± S.E.M.) (male Sprague-Dawley rats [3]; [6]): 9.9 ± 0.70 s; Paw Withdrawal Latency (sec) (mean ± S.E.M.) (male Sprague-Dawley rats [3]; [7]): 14.5 ± 1.22 s; % Change from Baseline (mean ± S.E.M.) of Paw Withdrawal Latency (male Sprague-Dawley rats [3]; [8]): −36.0 ± 11.15%; Paw Withdrawal Latency (sec) (mean ± S.E.M.) (male Sprague-Dawley rats [3]; [8]): 8.9 ± 1.08 s; % Change from Baseline (mean ± S.E.M.) of Paw Withdrawal Latency (male Sprague-Dawley rats [3]; [9]): −19.7 ± 10.24%; Paw Withdrawal Latency (sec) (mean ± S.E.M.) (male Sprague-Dawley rats [3]; [9]): 12.0 ± 0.66 s; % Change from Baseline (mean ± S.E.M.) of Paw Withdrawal Latency (male Sprague-Dawley rats [3]; [10]): −22.5 ± 9.23%; Paw Withdrawal Latency (sec) (mean ± S.E.M.) (male Sprague-Dawley rats [3]; [10]): 11.3 ± 0.98 s; Paw Withdrawal Latency (sec) (mean ± S.E.M.) (male Sprague-Dawley rats [3]; [11]): 14.4 ± 1.17 s; % Change from Baseline (mean ± S.E.M.) of Paw Withdrawal Latency (male Sprague-Dawley rats [3]; [12]): −34.3 ± 6.08%; Paw Withdrawal Latency (sec) (mean ± S.E.M.) (male Sprague-Dawley rats [3]; [12]): 7.8 ± 0.73 s; % Change from Baseline (mean ± S.E.M.) of Paw Withdrawal Latency (male Sprague-Dawley rats [3]; [13]): −15.7 ± 10.29%; Paw Withdrawal Latency (sec) (mean ± S.E.M.) (male Sprague-Dawley rats [3]; [13]): 11.5 ± 1.04 s; % Change from Baseline (mean ± S.E.M.) of Paw Withdrawal Latency (male Sprague-Dawley rats [3]; [14]): −16.6 ± 8.94%; Paw Withdrawal Latency (sec) (mean ± S.E.M.) (male Sprague-Dawley rats [3]; [14]): 11.2 ± 0.81 s; Paw Withdrawal Latency (sec) (mean ± S.E.M.) (male Sprague-Dawley rats [3]; [15]): 13.7 ± 0.92 s
